The values that follow come from patent US9676757B2, “Heterocyclic compounds as NaV channel inhibitors and uses thereof” (Merck Patent GmbH, priority 2014, dated 2017).

The conditions of test [1]: secondary progressive MS patients; over 2 years; p=0.02; cited from earlier work.
For test [2], the target named is Nav1.6 (Homo sapiens, UniProt Q9UQD0). As to the kind of experiment: Nav two-pulse protocol, IonWorks Quattro electrophysiology. In kind it is cell-based. Conditions: -120 mV to 0 mV, compound incubated 300 s. The method, boiled down: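 Two-pulse protocol on IonWorks Quattro with amphotericin B (200 μg/ml) perforated patch: holding −120 mV, 2.5 s step to 0 mV, 5 ms gap, 20 ms step to 0 mV. Compounds (0.3% DMSO final) incubated 300 s; block taken as Post/Pre peak inward current for each pulse.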
Chain of Nav1.6 (Q9UQD0 whole entry): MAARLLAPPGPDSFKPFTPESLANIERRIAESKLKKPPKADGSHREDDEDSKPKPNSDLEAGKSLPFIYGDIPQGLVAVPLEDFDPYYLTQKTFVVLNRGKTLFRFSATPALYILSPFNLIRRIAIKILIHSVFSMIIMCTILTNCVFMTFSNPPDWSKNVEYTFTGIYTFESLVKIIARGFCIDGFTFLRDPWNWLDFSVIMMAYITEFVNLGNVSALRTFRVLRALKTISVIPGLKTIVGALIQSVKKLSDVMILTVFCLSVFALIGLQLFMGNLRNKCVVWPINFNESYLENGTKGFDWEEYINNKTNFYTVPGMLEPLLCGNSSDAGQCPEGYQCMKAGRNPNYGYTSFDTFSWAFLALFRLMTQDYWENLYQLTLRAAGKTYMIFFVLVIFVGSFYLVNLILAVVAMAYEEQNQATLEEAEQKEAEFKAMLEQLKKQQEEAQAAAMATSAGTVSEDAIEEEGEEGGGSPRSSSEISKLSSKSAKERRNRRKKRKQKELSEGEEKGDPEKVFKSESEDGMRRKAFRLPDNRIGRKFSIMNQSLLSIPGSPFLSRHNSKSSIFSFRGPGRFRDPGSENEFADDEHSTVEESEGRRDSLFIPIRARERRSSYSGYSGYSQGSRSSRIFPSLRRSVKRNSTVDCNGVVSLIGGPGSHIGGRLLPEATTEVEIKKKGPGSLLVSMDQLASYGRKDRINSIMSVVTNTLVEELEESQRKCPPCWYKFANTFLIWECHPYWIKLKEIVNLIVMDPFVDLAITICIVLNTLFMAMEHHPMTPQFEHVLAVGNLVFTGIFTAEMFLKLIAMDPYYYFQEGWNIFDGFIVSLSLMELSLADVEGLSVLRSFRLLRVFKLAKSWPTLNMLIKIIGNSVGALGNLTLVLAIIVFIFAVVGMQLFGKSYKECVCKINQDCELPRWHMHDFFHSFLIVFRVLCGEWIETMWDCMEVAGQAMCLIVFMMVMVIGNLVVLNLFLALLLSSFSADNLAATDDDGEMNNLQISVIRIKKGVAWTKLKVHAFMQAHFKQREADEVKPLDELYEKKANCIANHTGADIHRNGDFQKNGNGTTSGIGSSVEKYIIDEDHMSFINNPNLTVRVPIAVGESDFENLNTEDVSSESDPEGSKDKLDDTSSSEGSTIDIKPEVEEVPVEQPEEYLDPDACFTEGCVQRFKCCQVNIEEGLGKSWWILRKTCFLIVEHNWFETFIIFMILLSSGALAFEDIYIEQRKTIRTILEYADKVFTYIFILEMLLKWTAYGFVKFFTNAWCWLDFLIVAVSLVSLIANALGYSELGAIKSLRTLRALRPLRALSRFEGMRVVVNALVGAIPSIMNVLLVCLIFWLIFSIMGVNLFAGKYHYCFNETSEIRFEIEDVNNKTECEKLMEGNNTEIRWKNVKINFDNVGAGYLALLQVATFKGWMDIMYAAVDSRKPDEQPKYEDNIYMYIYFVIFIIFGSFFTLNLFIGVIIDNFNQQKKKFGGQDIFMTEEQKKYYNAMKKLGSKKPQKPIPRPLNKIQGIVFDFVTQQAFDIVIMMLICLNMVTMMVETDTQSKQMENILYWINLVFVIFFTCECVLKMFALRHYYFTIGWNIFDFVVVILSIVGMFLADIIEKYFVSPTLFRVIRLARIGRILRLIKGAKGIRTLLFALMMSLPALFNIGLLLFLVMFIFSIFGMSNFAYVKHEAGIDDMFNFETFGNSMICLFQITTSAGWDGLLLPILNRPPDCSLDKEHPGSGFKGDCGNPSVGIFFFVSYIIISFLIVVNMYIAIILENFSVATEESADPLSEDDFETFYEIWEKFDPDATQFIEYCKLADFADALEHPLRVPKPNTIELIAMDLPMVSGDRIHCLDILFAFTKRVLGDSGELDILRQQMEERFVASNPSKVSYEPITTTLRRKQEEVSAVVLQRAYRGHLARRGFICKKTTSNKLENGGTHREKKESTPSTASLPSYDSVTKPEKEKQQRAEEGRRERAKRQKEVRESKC
For orientation: In patch-clamp work, channel activity is measured electrically.

Where a name gives a salt, the structure may show the parent alone. Read-outs that look alike come from different tables or passages of the source.

Consider `Nc1nnc(-c2cccc(Cl)c2Cl)c(N)n1` [Lamotrigine], for which the “deterioration of the timed 25-foot walk” value in test [1] was “reduced the deterioration of the timed 25-foot walk”.

As for `O=C(NCc1ccc(C(F)(F)F)cc1)C1CCN(Cc2cccc(Oc3ccccc3)c2)C1` (stereo not drawn) [Compound 71, 1-(3-Phenoxy-benzyl)-pyrrolidine-3-carboxylic acid 4-trifluoromethyl-benzylamide], the IC50 in test [2] (read-out: Nav1.6 Tonic) lay in the range of 10 to 20 µM; in test [2] (read-out: Nav1.6 inac), 1 to 5 µM.

For the compound `CC1(C(=O)NCc2ccccn2)CCN(Cc2cnc(-c3ccccc3)s2)C1` (stereo not drawn) [Compound 102, 3-Methyl-1-(2-phenyl-thiazol-5-ylmethyl)-pyrrolidine-3-carboxylic acid (pyridin-2-ylmethyl)-amide], the values for the IC50 in test [2] (read-out: Nav1.6 Tonic) and in test [2] (read-out: Nav1.6 inac) were above 20 µM and 1 to 5 µM, respectively.

As for `Cc1cnc(CNC(=O)C2CCN(Cc3cccc(OCC(F)(F)F)c3)C2)cn1` (stereo not drawn) [Compound 89, 1-[3-(2,2,2-Trifluoro-ethoxy)-benzyl]-pyrrolidine-3-carboxylic acid (5-methyl-pyrazin-2-ylmethyl)-amide], the IC50 in test [2] (read-out: Nav1.6 Tonic) is above 20 µM; in test [2] (read-out: Nav1.6 inac) it was 1 to 5 µM.

For `COCCNC(=O)C1CN(Cc2cccc(Oc3ccccc3)c2)CCO1` (stereo not drawn) [Compound 107, 4-(3-Phenoxy-benzyl)-morpholine-2-carboxylic acid (2-methoxy-ethyl)-amide], the IC50 in test [2] (read-out: Nav1.6 Tonic) is above 20 µM; in test [2] (read-out: Nav1.6 inac) it was 1 to 5 µM.

As for `COc1ccccc1CNC(=O)C1CCN(Cc2cccc(Oc3ccccc3)c2)C1` (stereo not drawn) [Compound 65, 1-(3-Phenoxy-benzyl)-pyrrolidine-3-carboxylic acid 2-methoxy-benzylamide], the results for the IC50 in test [2] (read-out: Nav1.6 Tonic) and in test [2] (read-out: Nav1.6 inac) were above 20 µM and below 1 µM, respectively.

Regarding `Cc1cccc(-c2cn(C3CCN(Cc4cccc(OCC(C)C)c4)C3)nn2)n1` (stereo not drawn) [Compound 61, 2-{1-[1-(3-Isobutoxy-benzyl)-pyrrolidin-3-yl]-1H-[1,2,3]triazol-4-yl}-6-methyl-pyridine], the values for the IC50 in test [2] (read-out: Nav1.6 Tonic) and in test [2] (read-out: Nav1.6 inac) were above 20 µM and above 5 µM, respectively.

`O=C(NCc1ccccn1)C1CCN(Cc2cccc(OC(F)(F)F)c2)C1` (stereo not drawn) [Compound 109, 1-(3-Trifluoromethoxy-benzyl)-pyrrolidine-3-carboxylic acid (pyridin-2-ylmethyl)-amide hydrochloride]: the IC50 in test [2] (read-out: Nav1.6 Tonic) was 10 to 20 µM; in test [2] (read-out: Nav1.6 inac), below 1 µM.

On to `COc1cccc(-c2nc(C3CCN(Cc4cccc(OCC(C)C)c4)C3)no2)n1` (stereo not drawn) [Compound 56, 2-{3-[1-(3-Isobutoxy-benzyl)-pyrrolidin-3-yl]-[1,2,4]oxadiazol-5-yl}-6-methoxy-pyridine], for which the IC50 in test [2] (read-out: Nav1.6 Tonic) is above 20 µM; in test [2] (read-out: Nav1.6 inac), 1 to 5 µM.

For the compound `CC(C)COc1cccc(CN2CCC(c3noc(-c4ccccn4)n3)C2)c1` (stereo not drawn) [Compound 48, 2-{3-[1-(3-Isobutoxy-benzyl)-pyrrolidin-3-yl]-[1,2,4]oxadiazol-5-yl}-pyridine], the IC50 is above 20 µM in test [2] (read-out: Nav1.6 Tonic) and 1 to 5 µM in test [2] (read-out: Nav1.6 inac).

With `O=C(NCc1cccc(C(F)(F)F)c1)C1CCN(Cc2cccc(Oc3ccccc3)c2)C1` (stereo not drawn) [Compound 70, 1-(3-Phenoxy-benzyl)-pyrrolidine-3-carboxylic acid 3-trifluoromethyl-benzylamide], the IC50 lay within 10 to 20 µM in test [2] (read-out: Nav1.6 Tonic) and 1 to 5 µM in test [2] (read-out: Nav1.6 inac).

Consider `O=C(NCc1cccc(C(F)(F)F)n1)C1CCN(Cc2cccc(OCC(F)(F)F)c2)C1` (stereo not drawn) [Compound 92, 1-[3-(2,2,2-Trifluoro-ethoxy)-benzyl]-pyrrolidine-3-carboxylic acid (6-trifluoromethyl-pyridin-2-ylmethyl)-amide], for which the IC50 is above 20 µM in test [2] (read-out: Nav1.6 Tonic) and 1 to 5 µM in test [2] (read-out: Nav1.6 inac).

Turning to `C[C@@]1(C(=O)NCc2ccccn2)CCN(Cc2cccc(Oc3ccccc3)c2)C1` [Compound 37, (R)-3-methyl-1-(3-phenoxybenzyl)-N-(pyridin-2-ylmethyl)pyrrolidine-3-carboxamide], the figures for the IC50 in test [2] (read-out: Nav1.6 Tonic) and in test [2] (read-out: Nav1.6 inac) were above 20 µM and 1 to 5 µM, respectively.

As to `COc1ccnc(-c2nc(C3CCN(Cc4cccc(OCC(C)C)c4)C3)no2)c1` (stereo not drawn) [Compound 52, 2-{3-[1-(3-Isobutoxy-benzyl)-pyrrolidin-3-yl]-[1,2,4]oxadiazol-5-yl}-4-methoxy-pyridine], the figures for the IC50 in test [2] (read-out: Nav1.6 Tonic) and in test [2] (read-out: Nav1.6 inac) were above 20 µM and 1 to 5 µM, respectively.

Regarding `O=C(NCc1ccccc1C(F)(F)F)C1CCN(Cc2cccc(Oc3ccccc3)c2)C1` (stereo not drawn) [Compound 72, 1-(3-Phenoxy-benzyl)-pyrrolidine-3-carboxylic acid 2-trifluoromethyl-benzylamide], the IC50 was in the range of 10 to 20 µM in test [2] (read-out: Nav1.6 Tonic) and 1 to 5 µM in test [2] (read-out: Nav1.6 inac).

As to `CC(C)c1ccc(Oc2cccc(CN3CCC(F)(C(=O)NCc4ccccn4)C3)c2)cc1` (stereo not drawn) [Compound 26, 3-Fluoro-1-[3-(4-isopropyl-phenoxy)-benzyl]-pyrrolidine-3-carboxylic acid (pyridin-2-ylmethyl)-amide], the IC50 in test [2] (read-out: Nav1.6 Tonic) is above 20 µM; in test [2] (read-out: Nav1.6 inac) it was 1 to 5 µM.

As for `COc1cccc(-c2cn(C3CCN(Cc4cccc(OCC(C)C)c4)C3)nn2)n1` (stereo not drawn) [Compound 62, 2-{1-[1-(3-Isobutoxy-benzyl)-pyrrolidin-3-yl]-1H-[1,2,3]triazol-4-yl}-6-methoxy-pyridine], the IC50 is above 20 µM in test [2] (read-out: Nav1.6 Tonic) and 1 to 5 µM in test [2] (read-out: Nav1.6 inac).

Take `O=C(NCc1ccccn1)C1CCN(Cc2cccc(Oc3cccc(F)c3)c2)C1` (stereo not drawn) [Compound 11, 1-[3-(3-Fluoro-phenoxy)-benzyl]-pyrrolidine-3-carboxylic acid (pyridin-2-ylmethyl)-amide]: the IC50 was 10 to 20 µM in test [2] (read-out: Nav1.6 Tonic) and below 1 µM in test [2] (read-out: Nav1.6 inac).

For the compound `O=C(NCc1ccccc1F)C1CCN(Cc2cccc(Oc3ccccc3)c2)C1` (stereo not drawn) [Compound 73, 1-(3-Phenoxy-benzyl)-pyrrolidine-3-carboxylic acid 2-fluoro-benzylamide], the IC50 in test [2] (read-out: Nav1.6 Tonic) lay within 10 to 20 µM; in test [2] (read-out: Nav1.6 inac), 1 to 5 µM.

With `Cc1ccc(Oc2cccc(CN3CCC(F)(C(=O)NCc4ccccn4)C3)c2)cc1` (stereo not drawn) [Compound 22, 3-Fluoro-1-(3-p-tolyloxy-benzyl)-pyrrolidine-3-carboxylic acid (pyridin-2-ylmethyl)-amide], the IC50 in test [2] (read-out: Nav1.6 Tonic) was above 20 µM; in test [2] (read-out: Nav1.6 inac), 1 to 5 µM.

Regarding `CN1CCN(C(=O)C2CCN(Cc3cccc(Oc4ccccc4)c3)C2)CC1=O` (stereo not drawn) [Compound 104, 1-Methyl-4-[1-(3-phenoxy-benzyl)-pyrrolidine-3-carbonyl]-piperazin-2-one], the IC50 in test [2] (read-out: Nav1.6 Tonic) was above 20 µM; in test [2] (read-out: Nav1.6 inac) it was 1 to 5 µM.

`O=C(NCc1ccccn1)C1CCN(Cc2cccc(Oc3ccc(F)c(F)c3)c2)C1` (stereo not drawn) [Compound 3, 1-[3-(3,4-Difluoro-phenoxy)-benzyl]-pyrrolidine-3-carboxylic acid (pyridin-2-ylmethyl)-amide]: the IC50 in test [2] (read-out: Nav1.6 Tonic) was above 20 µM; in test [2] (read-out: Nav1.6 inac) it was 1 to 5 µM.

Regarding `O=C(NCc1ccccn1)C1CCN(Cc2cccc(Oc3ncccn3)c2)C1` (stereo not drawn) [Compound 44, 1-[3-(Pyrimidin-2-yloxy)-benzyl]-pyrrolidine-3-carboxylic acid (pyridin-2-ylmethyl)-amide], the IC50 in test [2] (read-out: Nav1.6 Tonic) was above 20 µM; in test [2] (read-out: Nav1.6 inac) it was above 5 µM.

As for `O=C(NCc1nc(-c2ccccc2)cs1)C1CCN(Cc2cccc(Oc3ccccc3)c2)C1` (stereo not drawn) [Compound 85, 1-(3-Phenoxy-benzyl)-pyrrolidine-3-carboxylic acid (4-phenyl-thiaz-1-2-ylmethyl)-amide], the IC50 in test [2] (read-out: Nav1.6 Tonic) is above 20 µM; in test [2] (read-out: Nav1.6 inac) it was 1 to 5 µM.

Take `CC1(C(=O)NCc2ccccn2)CCN(Cc2coc(-c3ccccc3)n2)C1` (stereo not drawn) [Compound 99, 3-Methyl-1-(2-phenyl-oxazol-4-ylmethyl)-pyrrolidine-3-carboxylic acid (pyridin-2-ylmethyl)-amide]: the IC50 was above 20 µM in test [2] (read-out: Nav1.6 Tonic) and 1 to 5 µM in test [2] (read-out: Nav1.6 inac).

For `Cc1cccc(CNC(=O)C2CCN(Cc3cccc(Oc4ccccc4)c3)C2)c1` (stereo not drawn) [Compound 82, 1-(3-Phenoxy-benzyl)-pyrrolidine-3-carboxylic acid 3-methyl-benzylamide], the IC50 in test [2] (read-out: Nav1.6 Tonic) was 10 to 20 µM; in test [2] (read-out: Nav1.6 inac) it was below 1 µM.
